According to patent publication US6054441A, “Oxypurine nucleosides and their congeners, and acyl derivatives thereof, for improvement of hematopoiesis” (priority 1995, dated 2000):

What was measured:
[1] = tested on: hematopoietic recovery after cyclophosphamide; experiment: Hematopoietic recovery after cyclophosphamide (Example 47); type: in vivo, Balb/C mice
Method: Cyclophosphamide (CP) (275 mg/kg, i.p.) was administered to 48 Balb/C female mice weighing approximately 20 grams each. Twenty-four hours later and each day thereafter for a total of 6 days, mice were given a 0.4 ml i.p. injection of either physiological saline (controls), benzoylguanosine (2.5 μmoles/mouse/day in 0.2% Tween 80), or palmitoylguanosine (2.5 μmoles/mouse/day in 0.2% Tween 80). On days 7 and 10 following CP administration 8 animals from each of the 3 groups were bled and then were sacrificed by cervical dislocation. Spleens were removed and weighed, and complete blood cell counts performed.

[2] = tested on: hematopoietic recovery after cyclophosphamide; experiment: Hematopoietic recovery after cyclophosphamide (Example 51); type: in vivo, Balb/C mice; conditions: day 5; 2 μmoles/mouse
Method: Cyclophosphamide (CP) (275 mg/kg, i.p.) was administered to 88 Balb/C female mice weighing approximately 20 grams each. Twenty-four hours later and each day thereafter mice were given a 0.4 ml i.p. injection of either Tween-80 (0.2%) (controls), 3'-O-palmitoyldeoxyguanosine (2 μmoles/mouse), butyryldeoxyguanosine (2 μmoles/mouse), palmitoyl-N-isobutyryldeoxyguanosine (2 μmoles/mouse), lauryldeoxyguanosine (2 μmoles/mouse), octanoyldeoxyguanosine (2 μmoles/mouse), and palmitoyldeoxyguanosine (2 μmoles/mouse). On days 5 and 7 following CP administration 6 or 7 animals in each of the 7 groups were bled and then sacrificed by cervical dislocation. Spleens were removed and weighed, and complete blood cell counts performed.

[3] = tested on: hematopoiesis in normal mice; experiment: Hematopoiesis in normal mice (Example 56); type: in vivo, Balb/C mice; conditions: femoral bone marrow; day 5; 2.6 μmoles/mouse, 4 days
Method: Normal Balb/C female mice weighing approximately 20 grams each were given a daily 0.4 ml i.p. injection of either physiological saline (controls), palmitoylguanosine (2.6 μmoles/mouse), palmitoyldeoxyguanosine (2.6 μmoles/mouse), monopalmitoylguanosine 2',3'-acyclic dialcohol (2.6 μmoles/mouse), and palmitoyl-8-bromoguanosine (2.6 μmoles/mouse) for 4 days. On the fifth day all 3 animals in each of the 5 groups were bled and then sacrificed by cervical dislocation. Spleens were removed and weighed, and complete blood cell counts performed. Femoral bone marrow from each mouse was collected and a differential cell count performed on marrow smears.

[4] = tested on: blood cell counts after cyclophosphamide; experiment: Hematopoietic recovery after cyclophosphamide (Example 63); type: in vivo, Balb-C mice; conditions: for Neutrophils / Platelets / WBC / Spleen: 7 days after CP; for Spleen: 25 mg/kg TriPdG or molar equivalent
Method: Fifty-eight female Balb-C mice weighing approximately 20 grams each received a single injection of cyclophosphamide (250 mg/kg, i.p.), and were then distributed into a vehicle control group (0.2% Tween-80+7.5% DMSO in saline; n=12) or one of five treatment groups:
Vehicle or treatment agents were administered to mice once daily for five days at a volume of 0.4 ml by i.p. injection. TriPdG was given at a dose of 25 mg/kg/treatment. The other four agents were given in doses that are the molar equivalent of 25 mg/kg/treatment of TriPdG. On days 5 and 7 following CP administration half of the animals from each of the six groups were bled and then sacrificed by cervical dislocation. Five untreated mice were also bled and sacrificed to provide data on normal (basal) values. Spleens were removed and weighed, and complete blood cell counts performed.

FDCPmix cells = experiment: Proliferation of FDCPmix cells, MTT assay (Example 69); type: cell-based; conditions: for inhibition of proliferation: 10 micrograms/ml down; for activity at 0.01 µg/mL / activity at 0.039 µg/mL / activity at 0.156 µg/mL / activity at 0.625 µg/mL / activity at 2.5 µg/mL / activity at 10 µg/mL: 48 h, read-out: Cell proliferation
Method: The FDCPmix cell line was used as a suitable in vitro model for predicting the effects of hematopoietic factors on pluripotential stem cells. These cells can be maintained in an-undifferentiated state in the presence of IL-3 or undergo multi-lineage development in the presence of specific hematopoietic growth factors.
This level of proliferation (100%) served as the control value. Inhibition of proliferation by test compounds was represented as a percent of control.
FDCPmix cells were plated at a density of 5×10^4 cells per well in 96-well plates (5×10^5 /ml) using IMDM medium plus 10% fetal bovine serum. […] Test compounds were added at a decreasing concentrations ranging from 10 micrograms/ml down to 1 nanogram/ml. The test compounds included: 3',5'-O-N^2 -tripalmitoyl-2'-deoxyguanosine, 3',5'-di-O-palmitoyl-2'-deoxyguanosine, 3',5'-O-N^2 -trioctanoyl-2'-deoxyguanosine, 3',5'-di-O-octanoyl-2'-deoxyguanosine, and 3',5'-O-N^2 -trioleyl-2'-deoxyguanosine.

[5] = tested on: hematopoietic recovery after cyclophosphamide; experiment: Hematopoietic recovery after cyclophosphamide (Example 48); type: in vivo, Balb/C mice; conditions: day 7; vs controls
Method: Cyclophosphamide (CP) (275 mg/kg, i.p.) was administered to 36 Balb/C female mice weighing approximately 20 grams each. Twenty four hours later and each day thereafter for a total of 4 or 6 days, mice were given a 0.4 ml i.p. injection of either physiological saline (controls), palmitoyldeoxyinosine (2.5 μmoles/mouse), or palmitoylxanthosine (2.5 μmoles/mouse). On days 5 and 7 following CP administration 6 of the 12 animals in each of the 3 groups were bled and then sacrificed by cervical dislocation. Spleens were removed and weighed, and complete blood cell counts performed.

**Q.** Benzoylguanosine was tested. Which Neutrophils ([1]; day 7, 2.5 μmoles/mouse/day) did it give?
**A.** significantly elevated

**Q.** And the spleen weight ([1]; day 7, 2.5 μmoles/mouse/day)?
**A.** significantly elevated

**Q.** And the “total white blood cells” value ([1]; day 7, 2.5 μmoles/mouse/day)?
**A.** significantly elevated

**Q.** What about the platelet number ([1]; day 10) of the same compound?
**A.** significantly greater

**Q.** What does the source list for `CCCCCCCCCCCCCCCC(=O)O[C@H]1C[C@H](n2cnc3c(=O)[nH]c(N)nc32)O[C@@H]1CO` [3'-O-palmitoyldeoxyguanosine, 3'-O-Palmitoyl-2'-deoxyguanosine]?
**A.** spleen weight [2]: significantly elevated; total neutrophil counts [2]: significantly elevated

**Q.** For `CCCCCCCCCCCCCCCC(=O)OC[C@H]1O[C@@H](n2c(Br)nc3c(=O)[nH]c(N)nc32)[C@H](O)[C@@H]1O` [palmitoyl-8-bromoguanosine], which number of myelocytes [3] is on record?
**A.** significantly greater

**Q.** How did the spleen weight [2] turn out when `CCCCCCCCCCCCCCCC(=O)OC[C@H]1O[C@@H](n2cnc3c(=O)[nH]c(NC(=O)C(C)C)nc32)C[C@@H]1O` [NibuPdG, N^2-isobutyryl-5'-O-palmitoyl-2'-deoxyguanosine] was run?
**A.** significantly elevated

**Q.** What about the total neutrophil counts [2] of the same compound?
**A.** significantly elevated

**Q.** What about the Neutrophils [4] of the same compound?
**A.** 2.2 ± .5 K/μl

**Q.** What about the Platelets [4] of the same compound?
**A.** 649 ± 23 K/μl

**Q.** What about the WBC [4] of the same compound?
**A.** 4.4 ± .5 K/μl

**Q.** And the Spleen [4]?
**A.** 69 ± 6 mg

**Q.** For `CCCCCCCC/C=C\CCCCCCCC(=O)Nc1nc2c(ncn2[C@H]2C[C@H](OC(=O)CCCCCCC/C=C\CCCCCCCC)[C@@H](COC(=O)CCCCCCC/C=C\CCCCCCCC)O2)c(=O)[nH]1` [TriOdG, 3',5'-O-N^2-trioleyl-2'-deoxyguanosine], which inhibition of proliferation (FDCPmix cells) is on record?
**A.** little or no inhibitory effects

**Q.** What about the activity at 0.01 µg/mL (FDCPmix cells) of the same compound?
**A.** 92 ± 5%

**Q.** What about the activity at 0.039 µg/mL (FDCPmix cells) of the same compound?
**A.** 91 ± 5%

**Q.** And the activity at 0.156 µg/mL (FDCPmix cells)?
**A.** 92 ± 5%

**Q.** And the activity at 0.625 µg/mL (FDCPmix cells)?
**A.** 98 ± 6%

**Q.** And the activity at 2.5 µg/mL (FDCPmix cells)?
**A.** 80 ± 2%

**Q.** And the activity at 10 µg/mL (FDCPmix cells)?
**A.** 110 ± 3%

**Q.** And the Neutrophils [4]?
**A.** 2.7 ± .4 K/μl

**Q.** And the Platelets [4]?
**A.** 741 ± 54 K/μl

**Q.** And the WBC [4]?
**A.** 5.2 ± .4 K/μl

**Q.** And the Spleen [4]?
**A.** 59 ± 5 mg

**Q.** And the lymphocyte counts ([4]; day 7 after CP, vs control)?
**A.** increased both platelet and lymphocyte counts

**Q.** How did the inhibition of proliferation (FDCPmix cells) turn out when `CCCCCCCC(=O)Nc1nc2c(ncn2[C@H]2C[C@H](OC(=O)CCCCCCC)[C@@H](COC(=O)CCCCCCC)O2)c(=O)[nH]1` [TriOctdG, 3',5'-O-N^2-trioctanoyl-2'-deoxyguanosine] was run?
**A.** little or no inhibitory effects

**Q.** And the activity at 0.01 µg/mL (FDCPmix cells)?
**A.** 87 ± 4%

**Q.** And the activity at 0.039 µg/mL (FDCPmix cells)?
**A.** 85 ± 2%

**Q.** What about the activity at 0.156 µg/mL (FDCPmix cells) of the same compound?
**A.** 89 ± 6%

**Q.** What about the activity at 0.625 µg/mL (FDCPmix cells) of the same compound?
**A.** 86 ± 2%

**Q.** And the activity at 2.5 µg/mL (FDCPmix cells)?
**A.** 96 ± 0.1%

**Q.** And the activity at 10 µg/mL (FDCPmix cells)?
**A.** 107 ± 1%

**Q.** How did the Neutrophils [5] turn out when Palmitoylxanthosine was run?
**A.** significantly increased

**Q.** What about the spleen weight [5] of the same compound?
**A.** significantly increased

**Q.** What about the total leukocytes [5] of the same compound?
**A.** significantly increased

**Q.** For `CCCCCCCCCCCCCCCCCC(=O)Nc1nc2c(ncn2[C@H]2C[C@H](OC(=O)CCCCCCCCCCCCCCCCC)[C@@H](COC(=O)CCCCCCCCCCCCCCCCC)O2)c(=O)[nH]1` [TriSdG, 3',5'-O-N^2-tristearyl-2'-deoxyguanosine], which Neutrophils [4] is on record?
**A.** 5.4 ± .5 K/μl

**Q.** What about the Platelets [4] of the same compound?
**A.** 498 ± 27 K/μl

**Q.** And the WBC [4]?
**A.** 7.6 ± .4 K/μl

**Q.** What about the Spleen [4] of the same compound?
**A.** 85 ± 9 mg

**Q.** How did the inhibition of proliferation (FDCPmix cells) turn out when `CCCCCCCC(=O)OC[C@H]1O[C@@H](n2cnc3c(=O)[nH]c(N)nc32)C[C@@H]1OC(=O)CCCCCCC` [DiOctdG, 3',5'-di-O-octanoyl-2'-deoxyguanosine] was run?
**A.** little or no inhibitory effects

**Q.** What about the activity at 0.01 µg/mL (FDCPmix cells) of the same compound?
**A.** 84 ± 2%

**Q.** What about the activity at 0.039 µg/mL (FDCPmix cells) of the same compound?
**A.** 86 ± 1%

**Q.** What about the activity at 0.156 µg/mL (FDCPmix cells) of the same compound?
**A.** 84 ± 6%

**Q.** What about the activity at 0.625 µg/mL (FDCPmix cells) of the same compound?
**A.** 93 ± 1%

**Q.** What about the activity at 2.5 µg/mL (FDCPmix cells) of the same compound?
**A.** 78 ± 2%

**Q.** What about the activity at 10 µg/mL (FDCPmix cells) of the same compound?
**A.** 100 ± 0.3%
